Laboratory results: patent publication US20230053437A1, “LIPID COMPOUNDS AND LIPID NANOPARTICLE COMPOSITIONS” (Suzhou Abogen Biosciences Co., Ltd., priority 2020, published 2023)

Legend:
Type in all cases: physicochemical
[1] = Lipid nanoparticle size by dynamic light scattering (Malvern Zetasizer Nano ZS); settings: LNP: cationic lipid/DSPC/cholesterol/PEG-lipid 50:10:38.5:1.5 with hEPO mRNA
Method: (§1) Briefly, a cationic lipid provided herein, DSPC, cholesterol, and PEG-lipid were solubilized in ethanol at a molar ratio of 50:10:38.5:1.5, and mRNA were diluted in 10 to 50 mM citrate buffer, pH=4. The LNPs were prepared at a total lipid to mRNA weight ratio of approximately 10:1 to 30:1 by mixing the ethanolic lipid solution with the aqueous mRNA solution at a volume ratio of 1:3 using a microfluidic apparatus, total flow rate ranging from 9-30 mL/min. Ethanol were thereby removed and replaced by DPBS using dialysis. Finally, the lipid nanoparticles were filtered through a […] sterile filter.
(§2) Lipid nanoparticle size were determined by dynamic light scattering using a Malvern Zetasizer Nano ZS (Malvern UK) using a 173° backscatter detection mode. The encapsulation efficiency of lipid nanoparticles were determined using a Quant-it Ribogreen RNA quantification assay kit (Thermo Fisher Scientific, UK) according to the manufacturer's instructions.

[2] = Encapsulation efficiency of lipid nanoparticles, Quant-it Ribogreen RNA quantification assay; settings: LNP with hEPO mRNA
Method: as §1, §2

[3] = Apparent pKa of LNP formulations, TNS fluorescence assay; settings: LNP cationic lipid/DSPC/cholesterol/DMG-PEG 50/10/38.5/1.5 mol %, pH 3 to 9
Method: As reported in literature, the apparent pKa of LNP formulations correlates with the delivery efficiency of LNPs for nucleic acids in vivo. The apparent pKa of each formulation was determined using an assay based on fluorescence of 2-(p-toluidino)-6-napthalene sulfonic acid (TNS). LNP formulations comprising of cationic lipid/DSPC/cholesterol/DMG-PEG (50/10/38.5/1.5 mol %) in PBS were prepared as described above. TNS was prepared as a 300 uM stock solution in distilled water. LNP formulations were diluted to 0.1 mg/ml total lipid in 3 mL of buffered solutions containing 50 mM sodium citrate, 50 mM sodium phosphate, 50 mM sodium borate, and 30 mM sodium chloride where the pH ranged from 3 to 9. An aliquot of the TNS solution was added to give a final concentration of 0.1 mg/ml and following vortex mixing fluorescence intensity was measured at room temperature in a Molecular Devices Spectramax iD3 spectrometer using excitation and mission wavelengths of 325 nm and 435 nm. A sigmoidal best fit analysis was applied to the fluorescence data and the pKa value was measured as the pH giving rise to half-maximal fluorescent intensity.

SMILES: CCCCCCCCCCCC(=O)OCC1(COC(=O)CCCCCCCCCCC)CCN(C(=O)CCCN2CCOCC2)CC1 [Compound 43]
- polydispersity [1]: 0.214
- size (nm) [1]: 89.71 nm
- Encapsulation Efficiency [2]: 69.9%
- Apparant Pka [3]: 6.83

SMILES: CCCCCCCCCCCC(=O)OCC1(COC(=O)CCCCCCCCCCC)CCN(C(=O)CCN2CCCC2)CC1 [Compound 5]
- polydispersity [1]: 0.112
- size (nm) [1]: 69.83 nm
- Encapsulation Efficiency [2]: 95.4%
- Apparant Pka [3]: 7.67

SMILES: CCCCCCCCCCCC(=O)OCC1(COC(=O)CCCCCCCCCCC)CCN(C(=O)CCN(C)CCCn2cnc3c(N)ncnc32)CC1 [Compound 15]
- polydispersity [1]: 0.153
- size (nm) [1]: 63.65 nm
- Encapsulation Efficiency [2]: 94.2%
- Apparant Pka [3]: 6.65

SMILES: CCCCCCCCCCCC(=O)OCC1(COC(=O)CCCCCCCCCCC)CCN(C(=O)CCN(CCO)CCCC)CC1 [Compound 24]
- polydispersity [1]: 0.165
- size (nm) [1]: 71.61 nm
- Encapsulation Efficiency [2]: 93.6%
- Apparant Pka [3]: 7.98

SMILES: CCCCCCCCCCCC(=O)OCC1(COC(=O)CCCCCCCCCCC)CCN(C(=O)CCN(CCCCC)CCCNc2c(N(C)C)c(=O)c2=O)CC1 [Compound 48]
- polydispersity [1]: 0.133
- size (nm) [1]: 85.67 nm
- Encapsulation Efficiency [2]: 98.3%
- Apparant Pka [3]: 7.17

SMILES: CCCCCCCCCCCC(=O)OCC1(COCCCCCCCC(=O)OC(CCCCCCCC)CCCCCCCC)CCN(C(=O)CCN(C)C)CC1 [Compound 61]
- polydispersity [1]: 0.2
- size (nm) [1]: 54.56 nm
- Encapsulation Efficiency [2]: 99.7%
- Apparant Pka [3]: 7.65
